Assay results from patent US12084437B2, “Halo-substituted piperidines as orexin receptor modulators” (AstraZeneca AB, priority 2016, dated 2024).

Legend:
[1] = Metabolic stability and intrinsic clearance in human liver microsomes; type: in vitro ADME; details: pooled human liver microsomes, NADPH, 1 uM compound, 37 C; read-out: hMics CLint
Protocol: Human Liver Microsomes (HLM) were obtained from BD Gentest UltraPool 150 donor (Lot no. 38289) at a concentration of 20 mg/mL protein. HLMs are stored in a −80° C. freezer. Prior to use, the pooled HLM were removed from the freezer and allowed to thaw in a 37° C. water bath and then stored on wet ice. 100 μmol/L test compound solution and positive control (PC) solutions (phenacetin, verapamil, diclofenac, imiprimine, benzydamine and metoprolol) were prepared by adding 2 μL of 10 mmol/L stock solution in DMSO to 198 μL of acetonitrile. HML mixtures were prepared by adding 1325 μL of 20 mg/mL HLM to 22260 μL of phosphate buffer to obtain the HLM mixture at 1.1236 mg/mL. Prior to testing the compounds, 222.5 μL of 1.1236 mg/mL HLM mixtures and 25 μL of the 10 mM NADPH were mixed in the incubation plates on a whirly mixer for 10 seconds. The incubation plates were pre-warmed at 37° C. for 8 min. […]
Quantitative LC-MS analysis were carried out with an API 4000 (AB sciex, USA) Ultra mass spectrometer at MRM mode (MS/MS). Peak areas were determined from extracted ion chromatograms. Percent parent remaining was calculated from peak area of test compound or PC. The slope value, k, was determined by linear regression of the natural logarithm of percent parent remaining vs. incubation time curve. […]
The in vitro half-life (in vitro t1/2) was determined from the slope value: in vitro t½=−(0.693/k). […]

OX2 = biological target: T1, OX2 (Homo sapiens, UniProt O43614); assay: Orexin receptor cell-based functional assay, [Ca2+]i by FLIPR, CHO-OX2 cells; details: FLIPR calcium, antagonism of EC90 of [OX]
T1 construct: expressed in transfected cells; host or cells: CHO (CHO-OX2)
T1 sequence (O43614 1-444): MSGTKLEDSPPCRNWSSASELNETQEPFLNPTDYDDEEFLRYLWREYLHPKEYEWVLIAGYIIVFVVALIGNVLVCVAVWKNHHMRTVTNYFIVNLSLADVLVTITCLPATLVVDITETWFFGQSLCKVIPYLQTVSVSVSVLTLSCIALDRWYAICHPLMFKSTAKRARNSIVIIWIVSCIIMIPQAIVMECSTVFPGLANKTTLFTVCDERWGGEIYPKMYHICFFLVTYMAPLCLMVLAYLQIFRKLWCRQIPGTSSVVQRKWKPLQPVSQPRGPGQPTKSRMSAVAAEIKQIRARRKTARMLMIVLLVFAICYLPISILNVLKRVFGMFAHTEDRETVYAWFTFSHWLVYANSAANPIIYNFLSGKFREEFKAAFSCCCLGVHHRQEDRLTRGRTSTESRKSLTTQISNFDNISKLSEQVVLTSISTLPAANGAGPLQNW
Method in brief: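 CHO cells expressing human OX1 or OX2 (20,000/well, grown overnight) were loaded with Calcium6 dye plus 2.5 mM probenecid for 2 h at 37 °C, then preincubated 30 min with compound (0.1 nM–10 µM). FLIPR fluorescence (ex 488/em 540 nm) was tracked before and after an EC90 orexin challenge.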

Row | microsomal CLint at 1 µM [1] [µL/min/mg] | IC50 (OX2) [µM] | Structure (SMILES)
1 | 29 | > 5 | Cc1nc(C(=O)N2CC(F)(F)C[C@@H](C)[C@H]2CNc2ccc(C(F)(F)F)cn2)c(-c2ccc(F)cc2)s1 [Compound 185, ((2S,3R)-5,5-difluoro-3-methyl-2-(((5-(trifluoromethyl)pyridin-2-yl)amino)methyl)piperidin-1-yl)(5-(4-fluorophenyl)-2-methylthiazol-4-yl)methanone]
2 | < 3 | 3.5 | C[C@@H]1CC(F)(F)CN(C(=O)c2nn(C)cc2-c2ccc(Cl)cc2)[C@@H]1CNc1cnc(C(F)(F)F)cn1 [Compound 129, (4-(4-chlorophenyl)-1-methyl-1H-pyrazol-3-yl)((2S,3R)-5,5-difluoro-3-methyl-2-(((5-(trifluoromethyl)pyrazin-2-yl)amino)methyl)piperidin-1-yl)methanone]
